Here are results for three compounds from publication PMC8879095, “UHPLC-MS/MS Analysis of Antibiotics Transfer and Concentrations in Porcine Oral Fluid after Intramuscular Application” (Pharmaceuticals, 2022).

Like-named read-outs stand apart in the source and are kept apart here.

A short description of data set [1]: Antibiotic concentrations in porcine oral fluid after intramuscular application (UHPLC-MS/MS). The format is in vivo. Conditions: pigs, i.m.; for concentration in oral fluid at withdrawal period: at the end of the withdrawal period for tissues of each drug (Table 3); for time for which the analyte was present / quantified in oral fluid: sampling for 30 days. How it is done:
All animals were born in the sow farm (8000 DanBred sows) located in Northern Poland, after crossing ♀(♂Landrace × ♀Yorskshire) × ♂Duroc. Piglets were weaned after 4 weeks of lactation with an average weight of 6 kg and then moved to the weaner stable (23,000 weaners). After the next 7 weeks, animals were transported to the 9000-places fattening farm with an average body weight of 28 kg, where the trial was performed. All farms in the aforementioned three-phase model used weekly batches and an all-in all-out system. Specialist veterinary and production management care were provided in each location.
For the purpose of the study, 240 immunologically castrated boars were divided into 8 groups, 30 animals in each pen. For the control group, 30 pigs were used in separate pens. Their initial body weight was between 40 and 60 kg. Pigs were housed at 20–25 °C. Fatteners were fed ad libitum with antimicrobial-free water and feed provided by feeders throughout the study. Before the experiment, water and feed were checked for antimicrobials, and no antimicrobial treatments were administered to these pigs before. All animals in one pen were treated due to the same health issue using disposable needles and the same drug and dosage. Pens were separated from each other with concrete walls. The drugs and dosage administered to each experimental group with an indication of withdrawal period for tissues are listed in Table 3. The oral fluid samples were collected using three cotton ropes (70 cm length with 1 cm diameter) in each pen suspended separately for 25 min on the front wall of the pen with bottoms at the pigs’ shoulder height, away from water and feed.
The research material was one pooled sample of oral fluid from 10 pigs, in triplicate, per pen. Ropes were removed immediately after collection. The first oral fluid sample was collected 24 h after the first injection. The collection of each subsequent sample took place at the same time (11:30 A.M.) for 35 consecutive days. Additionally, oral fluid samples were collected from pigs not treated with any antibiotics. Oral fluid from each pen was pooled into one 50-mL Falcon plastic tube and centrifuged at 9447× rcf for 15 min. Centrifuged material was transferred to a 15 mL plastic tube and frozen at −20 °C until analysis.
Before the analysis, the oral fluid samples were centrifuged at 9447× rcf. Next, an aliquot (1 mL) of oral fluid was placed into a 2 mL polypropylene centrifuge tube, and the 30 µL of the internal standard at the concentration of 2 µg/mL was added. For the extraction of analysed antibiotics, 600 µL of 0.5% formic acid was added, vortexed for 30 s and centrifuged for 10 min at 9447× rcf. Then, the supernatant was filtered through a […] PVDF filter into an amber glass vial before chromatographic analysis.
The mass spectrometry detection was operated in the positive ESI mode with multiple reaction monitoring (MRM).

The conditions of data set [2]: organic acid; cited from earlier work.
Details of data set [3]: method as in PMID 14651045, PMID 14651045. Conditions: cited from earlier work.
On the set-up of data set [4]: method as in PMID 28042939. Conditions: 21st day, i.m., cited from earlier work.
Where [5] appears, read: male, (Landrace × Yorkshire) × Duroc crossbred (DanBred sows), pig, intramuscular, oral fluid, time 1 d (24 h after first injection), treatment period, read-out: Avarage Concentrations in oral fluid.
[6] abbreviates: male, (Landrace × Yorkshire) × Duroc crossbred (DanBred sows), pig, intramuscular, oral fluid, treatment period, read-out: Avarage Concentrations in oral fluid.
Where [7] appears, read: male, (Landrace × Yorkshire) × Duroc crossbred (DanBred sows), pig, intramuscular, oral fluid, posttreatment, read-out: Avarage Concentrations in oral fluid.
Where [8] appears, read: oral fluid, time 1 d (24 h after first injection), treatment period.
The mark [9] stands for this setting: oral fluid, time 9 d, posttreatment.
Setting [10] is: oral fluid, time 10 d, posttreatment.
Where [11] appears, read: oral fluid, time 11 d, posttreatment.
Setting [12] is: oral fluid, time 12 d, posttreatment.
Setting [13] is: oral fluid, time 13 d, posttreatment.
The mark [14] stands for this setting: oral fluid, time 14 d, posttreatment.
Setting [15] is: oral fluid, time 15 d, posttreatment.
The mark [16] stands for this setting: oral fluid, time 16 d, posttreatment.
[17] abbreviates: oral fluid, time 17 d, posttreatment.
Setting [18] is: oral fluid, time 18 d, posttreatment.
Where [19] appears, read: oral fluid, time 19 d, posttreatment.
[20] abbreviates: oral fluid, time 20 d, posttreatment.
The mark [21] stands for this setting: oral fluid, time 21 d, posttreatment.
Setting [22] is: oral fluid, time 22 d, posttreatment.
The mark [23] stands for this setting: oral fluid, time 23 d, posttreatment.
Where [24] appears, read: oral fluid, time 24 d, posttreatment.
The mark [25] stands for this setting: oral fluid, time 25 d, posttreatment.
The mark [26] stands for this setting: oral fluid, time 26 d, posttreatment.
Setting [27] is: oral fluid, time 27 d, posttreatment.
Where [28] appears, read: oral fluid, time 28 d, posttreatment.
Setting [29] is: oral fluid, time 29 d, posttreatment.
The mark [30] stands for this setting: oral fluid, time 30 d, posttreatment.

For `CC1(C)S[C@@H]2[C@H](NC(=O)Cc3ccccc3)C(=O)N2[C@H]1C(=O)O` [PEN G, penicillin G], in data set [1] (setting [5]), the concentration at 1 d amounted to 93 ng/mL. Also, in data set [1] (setting [6]), the concentration at 2 d stood at 50 ± 15 ng/mL. Moreover, the concentration at 3 d in data set [1] (setting [6]) was found to be 11 ± 4.6 ng/mL. The concentration at 4 d in data set [1] (setting [7]) was 16 ± 5.4 ng/mL. In data set [1] (setting [7]), the concentration at 5 d is 5.2 ± 1.1 ng/mL. Moreover, in data set [1] (male, (Landrace × Yorkshire) × Duroc crossbred (DanBred sows), pig, intramuscular, oral fluid, time 6 d, posttreatment, read-out: Avarage Concentrations in oral fluid), the concentration at 6 d came out at 52 ± 13 ng/mL. Besides, in data set [1] (male, (Landrace × Yorkshire) × Duroc crossbred (DanBred sows), pig, intramuscular, oral fluid, time 7 d, posttreatment, read-out: Avarage Concentrations in oral fluid), the concentration at 7 d came out at 32 ± 7.2 ng/mL. In addition, the concentration at 8 d in data set [1] (male, (Landrace × Yorkshire) × Duroc crossbred (DanBred sows), pig, intramuscular, oral fluid, time 8 d, posttreatment, read-out: Avarage Concentrations in oral fluid) is 6 ± 1.2 ng/mL. Moreover, the “concentration in oral fluid at withdrawal period” value in data set [1] (oral fluid) is given as “below the limit of quantification”. In data set [1] (oral fluid), the “time for which the analyte was present / quantified in oral fluid” value was 8 days. Also, the “Avarage Concentrations in oral fluid” value is reported as 93 ± 21 µg/L in data set [1] (setting [8]); “<LOQ *” in data set [1] (setting [9]); “<LOQ” in data set [1] (setting [10]); “<LOQ” in data set [1] (setting [11]); “<LOQ” in data set [1] (setting [12]); “<LOQ” in data set [1] (setting [13]). The “Avarage Concentrations in oral fluid” value in data set [1] (setting [14]), in data set [1] (setting [15]), in data set [1] (setting [16]), in data set [1] (setting [17]), in data set [1] (setting [18]) and in data set [1] (setting [19]) was “<LOQ” each time. For the same compound, the “Avarage Concentrations in oral fluid” value in data set [1] (setting [20]), in data set [1] (setting [21]), in data set [1] (setting [22]), in data set [1] (setting [23]), in data set [1] (setting [24]) and in data set [1] (setting [25]) was “<LOQ” each time. Further, the “Avarage Concentrations in oral fluid” value in data set [1] (setting [26]), in data set [1] (setting [27]), in data set [1] (setting [28]), in data set [1] (setting [29]) and in data set [1] (setting [30]) was “<LOQ” each time. In addition, the pKa (in general, the pH at which an ionisable group is half protonated) in data set [2] is listed as 2.7.
`CC1(C)S[C@@H]2[C@H](NC(=O)[C@H](N)c3ccc(O)cc3)C(=O)N2[C@H]1C(=O)O` [AMX, amoxicillin]: the concentration at 1 d in data set [1] (setting [5]) came out at 11.3 ng/mL. In addition, the concentration at 2 d in data set [1] (setting [6]) came to 15.2 ± 2.3 ng/mL. Besides, the concentration at 3 d in data set [1] (setting [6]) amounted to 14.6 ± 1.8 ng/mL. In data set [1] (setting [7]), the concentration at 4 d came out at 11.4 ± 1.4 ng/mL. In data set [1] (setting [7]), the concentration at 5 d stood at 11.2 ± 1.6 ng/mL. Also, in data set [1] (oral fluid), the “concentration in oral fluid at withdrawal period” value is “below the limit of quantification”. Besides, the “time for which the analyte was present / quantified in oral fluid” value in data set [1] (oral fluid) worked out at 5 days. In addition, the “Avarage Concentrations in oral fluid” value is 11.3 ± 1.6 µg/L in data set [1] (setting [8]); “<LOQ” in data set [1] (oral fluid, time 6 d, posttreatment); “<LOQ” in data set [1] (oral fluid, time 7 d, posttreatment); “<LOQ” in data set [1] (oral fluid, time 8 d, posttreatment); “<LOQ” in data set [1] (setting [9]); “<LOQ” in data set [1] (setting [10]). Besides, the “Avarage Concentrations in oral fluid” value in data set [1] (setting [11]) is reported as “<LOQ *”; in data set [1] (setting [12]), “<LOQ”; in data set [1] (setting [13]), “<LOQ”; in data set [1] (setting [14]), “<LOQ”; in data set [1] (setting [15]), “<LOQ”; in data set [1] (setting [16]), “<LOQ”. The “Avarage Concentrations in oral fluid” value in data set [1] (setting [17]), in data set [1] (setting [18]), in data set [1] (setting [19]), in data set [1] (setting [20]), in data set [1] (setting [21]) and in data set [1] (setting [22]) was “<LOQ” each time. For the same compound, the “Avarage Concentrations in oral fluid” value in data set [1] (setting [23]), in data set [1] (setting [24]), in data set [1] (setting [25]), in data set [1] (setting [26]), in data set [1] (setting [27]) and in data set [1] (setting [28]) was “<LOQ” in each case. Besides, the “Avarage Concentrations in oral fluid” value in data set [1] (setting [29]) and in data set [1] (setting [30]) was “<LOQ” throughout. The “distribution to oral fluid” value in data set [1] (conclusion in words) is “low penetration”. In data set [3], the “binding degree to plasma proteins” value was “≈ 25%”.
For the compound `CN(C)[C@@H]1C(O)=C(C(N)=O)C(=O)[C@@]2(O)C(O)=C3C(=O)c4c(O)cccc4[C@@](C)(O)[C@H]3[C@H](O)[C@@H]12` [oxytetracycline], the “concentration in oral fluid at the withdrawal period” value is 30.8 µg/kg in data set [4] (group where all pigs were treated) and 11.6 µg/kg in data set [4] (group where the antibiotic was administered to half of the animals in one pen).
